We go through 25 molecules from ChEMBL document CHEMBL1141017, “Triterpene based compounds with potent anti-maturation activity against HIV-1” (Bioorg Med Chem Lett, 2008).

Where only a bound is given, the exact number is not on record here.

For data set [1], the system named is Human immunodeficiency virus 1. The experiment in a line: Antiviral activity against HIV1 NL4-3 infected in human MT4 cells assessed as cytoprotection against virus-induced cytopathic effect after 4 days by cell viability assay. Format: functional, organism-based. To be noted: Human immunodeficiency virus 1, NL4-3, MT4, 96 h. On the technique in general: Cytopathic effects are the visible damage that an infection or toxin causes in cultured cells.

A short description of data set [2]: Cytotoxicity against human MT4 cells after 4 days by cell viability assay. Format: cell-based. To be noted: read-out: TC50.
A short description of data set [3]: Therapeutic index, ratio of TC50 for human MT4 cells to EC50 for HIV1 NL43. It counts as cell-based.
A short description of data set [4]: Therapeutic index, ratio of TC50 for human MT4 cells to IC50 for HIV1 3B. It counts as cell-based.
A short description of data set [5]: Cytotoxicity against human PBMC by cell viability assay. It counts as cell-based. As to conditions: read-out: TC50 (the source's name).
In data set [6] the test system is Human immunodeficiency virus 1. The experiment in a line: Antiviral activity against HIV1 3B replication in human PBMC assessed as reverse transcriptase activity after 7 days. It counts as functional, organism-based. As to conditions: Human immunodeficiency virus 1, 3B, 168 h.
Data set [7] in a line: Metabolic stability in human liver microsomes assessed as compound remaining after 40 mins. Format: ADME, Microsome. As to conditions: read-out: Stability. A general note: Liver microsomes are vesicles of endoplasmic reticulum, rich in cytochrome P450 enzymes.
Data set [8] can be described thus: Metabolic stability in Sprague-Dawley rat liver microsomes assessed as compound remaining after 40 mins. Format: ADME, Microsome. To be noted: read-out: Stability.

Broadly, the EC50 is the concentration needed to bring the measured effect to its halfway point. Regarding `C=C(C)[C@@H]1CC[C@]2(C(=O)N[C@H]3CCCc4ccccc43)CC[C@]3(C)[C@H](CC[C@@H]4[C@@]5(C)CC[C@H](OC(=O)CC(C)(C)C(=O)O)C(C)(C)[C@@H]5CC[C@]43C)[C@@H]12`, the EC50 in data set [1] came to 180 nM. In addition, the CC50 at 96 h in data set [2] was greater than 10000 nM.

For the molecule `C=C(C)[C@@H]1CC[C@]2(C(=O)N[C@H]3CCc4ccccc43)CC[C@]3(C)[C@H](CC[C@@H]4[C@@]5(C)CC[C@H](OC(=O)CC(C)(C)C(=O)O)C(C)(C)[C@@H]5CC[C@]43C)[C@@H]12`, the 50% effective concentration (EC50) in data set [1] is 200 nM. For the same molecule, in data set [2], the CC50 at 96 h was greater than 10000 nM.

As for `C=C(C)[C@@H]1CC[C@]2(C(=O)NCc3ccccc3C(=O)NCCNC(C)=O)CC[C@]3(C)[C@H](CC[C@@H]4[C@@]5(C)CC[C@H](OC(=O)CC(C)(C)C(=O)O)C(C)(C)[C@@H]5CC[C@]43C)[C@@H]12`, in data set [1], the EC50 came to 5 nM. For the same molecule, the CC50 at 96 h in data set [2] amounted to 9300 nM. The selectivity ratio in data set [3] and in data set [4] was greater than 400 in each case.

Turning to `C=C(C)[C@@H]1CC[C@]2(C(=O)NCCc3ccc(C(=O)O)cc3)CC[C@]3(C)[C@H](CC[C@@H]4[C@@]5(C)CC[C@H](OC(=O)CC(C)(C)C(=O)O)C(C)(C)[C@@H]5CC[C@]43C)[C@@H]12`, the EC50 in data set [1] is 1000 nM. The CC50 at 96 h in data set [2] is 1000 nM.

Broadly, the IC50 is the concentration at which inhibition is half-maximal. As for `C=C(C)[C@@H]1CC[C@]2(C(=O)NCc3cccnc3C(=O)O)CC[C@]3(C)[C@H](CC[C@@H]4[C@@]5(C)CC[C@H](OC(=O)CC(C)(C)C(=O)O)C(C)(C)[C@@H]5CC[C@]43C)[C@@H]12`, the half-maximal effective concentration (EC50) in data set [1] came out at 24 nM. Moreover, the CC50 at 96 h in data set [2] was greater than 10000 nM. Also, the CC50 in data set [5] was greater than 10000 nM. For the same molecule, the IC50 in data set [6] was found to be 30 nM.

With `C=C(C)[C@@H]1CC[C@]2(C(=O)NCc3ccc(C(=O)NCCNC(C)=O)cc3)CC[C@]3(C)[C@H](CC[C@@H]4[C@@]5(C)CC[C@H](OC(=O)CC(C)(C)C(=O)O)C(C)(C)[C@@H]5CC[C@]43C)[C@@H]12`, the EC50 in data set [1] came to 30 nM. The CC50 at 96 h in data set [2] was determined as 10000 nM. Moreover, the selectivity ratio in data set [3] and in data set [4] was greater than 400 throughout.

Consider `C=C(C)[C@@H]1CC[C@]2(C(=O)NCCCc3ccc(OC)c(OC)c3)CC[C@]3(C)[C@H](CC[C@@H]4[C@@]5(C)CC[C@H](OC(=O)CC(C)(C)C(=O)O)C(C)(C)[C@@H]5CC[C@]43C)[C@@H]12`, for which the EC50 in data set [1] was found to be 20 nM. For the same molecule, in data set [2], the CC50 at 96 h is 10000 nM.

`C=C(C)[C@@H]1CC[C@]2(C(=O)NCc3ncccc3C(=O)O)CC[C@]3(C)[C@H](CC[C@@H]4[C@@]5(C)CC[C@H](OC(=O)CC(C)(C)C(=O)O)C(C)(C)[C@@H]5CC[C@]43C)[C@@H]12`: in data set [1], the half-maximal effective concentration (EC50) was 129 nM. Further, in data set [2], the CC50 at 96 h is greater than 10000 nM.

For the molecule `C=C(C)[C@@H]1CC[C@]2(C(=O)NCc3nc4ccccc4s3)CC[C@]3(C)[C@H](CC[C@@H]4[C@@]5(C)CC[C@H](OC(=O)CC(C)(C)C(=O)O)C(C)(C)[C@@H]5CC[C@]43C)[C@@H]12`, the EC50 in data set [1] was determined as 33 nM. For the same molecule, the CC50 at 96 h in data set [2] amounted to 6800 nM. Further, in data set [5], the CC50 was greater than 10000 nM. Also, the IC50 in data set [6] was found to be 3 nM.

As for `C=C(C)[C@@H]1CC[C@]2(C(=O)NCc3nc4ccccc4[nH]3)CC[C@]3(C)[C@H](CC[C@@H]4[C@@]5(C)CC[C@H](OC(=O)CC(C)(C)C(=O)O)C(C)(C)[C@@H]5CC[C@]43C)[C@@H]12`, the concentration giving a half-maximal response (EC50) in data set [1] turned out to be 5 nM. The CC50 at 96 h in data set [2] came to 8600 nM. The CC50 in data set [5] was greater than 10000 nM. For the same molecule, the IC50 in data set [6] is 1 nM.

With `C=C(C)[C@@H]1CC[C@]2(C(=O)NCc3ccc(-c4ccccc4)cc3)CC[C@]3(C)[C@H](CC[C@@H]4[C@@]5(C)CC[C@H](OC(=O)CC(C)(C)C(=O)O)C(C)(C)[C@@H]5CC[C@]43C)[C@@H]12`, the EC50 in data set [1] stood at 267 nM. In addition, the CC50 at 96 h in data set [2] is greater than 10000 nM. Moreover, the selectivity ratio in data set [3] and in data set [4] was greater than 400 each time. For the same molecule, the remaining at 40 min in data set [7] amounted to 10%.

As for `C=C(C)[C@@H]1CC[C@]2(C(=O)NCc3ccc(N(C)C)cc3)CC[C@]3(C)[C@H](CC[C@@H]4[C@@]5(C)CC[C@H](OC(=O)CC(C)(C)C(=O)O)C(C)(C)[C@@H]5CC[C@]43C)[C@@H]12`, the remaining at 40 min in data set [8] and in data set [7] was 10% in each case. In addition, in data set [1], the EC50 came out at 30 nM. The CC50 at 96 h in data set [2] stood at 1000 nM. Besides, the selectivity ratio in data set [3] and in data set [4] was greater than 400 in each case.

`C=C(C)[C@@H]1CC[C@]2(C(=O)NCc3ccc(C(=O)O)cc3)CC[C@]3(C)[C@H](CC[C@@H]4[C@@]5(C)CC[C@H](OC(=O)CC(C)(C)C(=O)O)C(C)(C)[C@@H]5CC[C@]43C)[C@@H]12`: the remaining at 40 min in data set [8] and in data set [7] was 10% each time. The EC50 in data set [1] came to 165 nM. Further, in data set [2], the CC50 at 96 h stood at 8900 nM. The selectivity ratio in data set [3] and in data set [4] was greater than 400 in each case.

As for `C=C(C)[C@@H]1CC[C@]2(C(=O)NCc3cccc(C(=O)O)c3)CC[C@]3(C)[C@H](CC[C@@H]4[C@@]5(C)CC[C@H](OC(=O)CC(C)(C)C(=O)O)C(C)(C)[C@@H]5CC[C@]43C)[C@@H]12`, the remaining at 40 min in data set [8] and in data set [7] was 10% in each case. Further, the EC50 in data set [1] came to 480 nM. Also, the CC50 at 96 h in data set [2] was found to be 7600 nM. Also, the selectivity ratio in data set [3] and in data set [4] was greater than 400 throughout.

On to `C=C(C)[C@@H]1CC[C@]2(C(=O)N[C@@H](Cc3ccc(OC)cc3)C(=O)O)CC[C@]3(C)[C@H](CC[C@@H]4[C@@]5(C)CC[C@H](OC(=O)CC(C)(C)C(=O)O)C(C)(C)[C@@H]5CC[C@]43C)[C@@H]12`, for which the EC50 in data set [1] was 9 nM. The CC50 at 96 h in data set [2] was 5600 nM.

On to `C=C(C)[C@@H]1CC[C@]2(C(=O)NCc3ccoc3)CC[C@]3(C)[C@H](CC[C@@H]4[C@@]5(C)CC[C@H](OC(=O)CC(C)(C)C(=O)O)C(C)(C)[C@@H]5CC[C@]43C)[C@@H]12`, for which the EC50 in data set [1] was 7 nM. Further, the CC50 at 96 h in data set [2] was greater than 10000 nM. In addition, in data set [5], the CC50 is greater than 10000 nM. The IC50 in data set [6] was 7 nM.

With `C=C(C)[C@@H]1CC[C@]2(C(=O)NCc3ccccc3-c3ccccc3)CC[C@]3(C)[C@H](CC[C@@H]4[C@@]5(C)CC[C@H](OC(=O)CC(C)(C)C(=O)O)C(C)(C)[C@@H]5CC[C@]43C)[C@@H]12`, the EC50 in data set [1] was 290 nM. Besides, the CC50 at 96 h in data set [2] is greater than 10000 nM. The selectivity ratio in data set [3] and in data set [4] was greater than 400 each time.

As for `C=C(C)[C@@H]1CC[C@]2(C(=O)NCc3ccccc3C)CC[C@]3(C)[C@H](CC[C@@H]4[C@@]5(C)CC[C@H](OC(=O)CC(C)(C)C(=O)O)C(C)(C)[C@@H]5CC[C@]43C)[C@@H]12`, the EC50 in data set [1] was 85 nM. In addition, in data set [2], the CC50 at 96 h is greater than 10000 nM. Besides, the selectivity ratio in data set [3] and in data set [4] was greater than 400 throughout. Also, the remaining at 40 min in data set [7] stood at 10%.

`C=C(C)[C@@H]1CC[C@]2(C(=O)N3Cc4ccccc4C3)CC[C@]3(C)[C@H](CC[C@@H]4[C@@]5(C)CC[C@H](OC(=O)CC(C)(C)C(=O)O)C(C)(C)[C@@H]5CC[C@]43C)[C@@H]12`: the EC50 in data set [1] stood at 70 nM. In addition, the CC50 at 96 h in data set [2] is greater than 10000 nM.

As for `C=C(C)[C@@H]1CC[C@]2(C(=O)NCc3ccc4ccccc4n3)CC[C@]3(C)[C@H](CC[C@@H]4[C@@]5(C)CC[C@H](OC(=O)CC(C)(C)C(=O)O)C(C)(C)[C@@H]5CC[C@]43C)[C@@H]12`, the EC50 in data set [1] worked out at 26 nM. Further, in data set [2], the CC50 at 96 h was greater than 10000 nM.

Turning to `C=C(C)[C@@H]1CC[C@]2(C(=O)NCCCc3ccc(OC)cc3)CC[C@]3(C)[C@H](CC[C@@H]4[C@@]5(C)CC[C@H](OC(=O)CC(C)(C)C(=O)O)C(C)(C)[C@@H]5CC[C@]43C)[C@@H]12`, the EC50 in data set [1] was 80 nM. Besides, in data set [2], the CC50 at 96 h was determined as 10000 nM.

Turning to `C=C(C)[C@@H]1CC[C@]2(C(=O)NCCc3cccc(OC)c3)CC[C@]3(C)[C@H](CC[C@@H]4[C@@]5(C)CC[C@H](OC(=O)CC(C)(C)C(=O)O)C(C)(C)[C@@H]5CC[C@]43C)[C@@H]12`, the EC50 in data set [1] stood at 40 nM. The CC50 at 96 h in data set [2] was greater than 10000 nM.

For the molecule `C=C(C)[C@@H]1CC[C@]2(C(=O)N[C@H](C(=O)O)c3ccc(OC)cc3)CC[C@]3(C)[C@H](CC[C@@H]4[C@@]5(C)CC[C@H](OC(=O)CC(C)(C)C(=O)O)C(C)(C)[C@@H]5CC[C@]43C)[C@@H]12`, the EC50 in data set [1] was determined as 40 nM. The CC50 at 96 h in data set [2] amounted to 6800 nM.

With `C=C(C)[C@@H]1CC[C@]2(C(=O)NCc3ccc(C(=O)O)cn3)CC[C@]3(C)[C@H](CC[C@@H]4[C@@]5(C)CC[C@H](OC(=O)CC(C)(C)C(=O)O)C(C)(C)[C@@H]5CC[C@]43C)[C@@H]12`, in data set [1], the half-maximal effective concentration (EC50) was determined as 1700 nM. Further, in data set [2], the CC50 at 96 h is greater than 10000 nM.

For `C=C(C)[C@@H]1CC[C@]2(C(=O)NCc3cccc(C(=O)NCCNC(C)=O)c3)CC[C@]3(C)[C@H](CC[C@@H]4[C@@]5(C)CC[C@H](OC(=O)CC(C)(C)C(=O)O)C(C)(C)[C@@H]5CC[C@]43C)[C@@H]12`, in data set [8], the remaining at 40 min came to 10%. Moreover, the EC50 in data set [1] came out at 10 nM. In data set [2], the CC50 at 96 h was found to be 10000 nM. Further, the selectivity ratio in data set [3] and in data set [4] was greater than 400 each time.
